Measured values: ChEMBL document CHEMBL1201862, “PubChem BioAssay data set” (2004)
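Method: 48-hour compound exposure of cells in 96-well plates, five concentrations, linear interpolation of endpoints. GI50 is the concentration that inhibits growth by half.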 The source made the active and inactive calls. Cut-off read from the data, not from the text of the source: active = GI50 up to about 1.1 µM and inactive = higher.

What was measured:
Assay in all cases: inhibition of tumour cell growth, NCI panel, 48 h
[1] = test system: HL-60
[2] = test system: SF-268
[3] = test system: M19-MEL
[4] = test system: SK-OV-3
[5] = test system: HCT-116
[6] = test system: HOP-18
[7] = test system: SF-539
[8] = test system: CAKI-1
[9] = test system: OVCAR-4
[10] = test system: HT-29
[11] = test system: NCI-H23
[12] = test system: NCI-H522
[13] = test system: UACC-62
[14] = test system: HOP-62
[15] = test system: NCI-H226
[16] = test system: KM12
[17] = test system: HCT-15
[18] = test system: DMS-114
[19] = test system: SW-620
[20] = test system: SF-295
[21] = test system: DMS-273
[22] = test system: NCI-H460
[23] = test system: MOLT-4
[24] = test system: HOP-92
[25] = test system: RXF 393
[26] = test system: UACC-257
[27] = test system: NCI/ADR-RES
[28] = test system: SK-MEL-2
[29] = test system: XF498
[30] = test system: KM-20L2
[31] = test system: HCC 2998
[32] = test system: LOX IMVI
[33] = test system: SN12C
[34] = test system: K562
[35] = test system: A549
[36] = test system: RPMI-8226
[37] = test system: DLD-1
[38] = test system: OVCAR-5
[39] = test system: OVCAR-8
[40] = test system: IGROV-1
[41] = test system: COLO 205
[42] = test system: UO-31
[43] = test system: OVCAR-3
[44] = test system: MCF7
[45] = test system: A498
[46] = test system: CCRF-CEM
[47] = test system: SNB-19
[48] = test system: U-251
[49] = test system: Malme-3M
[50] = test system: SNB-75
[51] = test system: SK-MEL-28
[52] = test system: EKVX
[53] = test system: SNB-78
[54] = test system: SK-MEL-5
[55] = test system: ACHN
[56] = test system: 786-0
[57] = test system: LXFL 529
[58] = test system: M14
[59] = test system: TK-10

Nc1nc(=O)n(C2OC(CO)C(O)C2O)cc1F (configuration not stated)
GI50 [1]: 0.293 µM (active)
GI50 [2]: 2.75 µM (inactive)
GI50 [3]: 0.731 µM (active)
GI50 [4]: > 100 µM (inactive)
GI50 [5]: 0.495 µM (active)
GI50 [6]: 2.44 µM (inactive)
GI50 [7]: 37.4 µM (inactive)
GI50 [8]: 1.65 µM (inactive)
GI50 [9]: > 100 µM (inactive)
GI50 [10]: 5.65 µM (inactive)
GI50 [11]: 0.191 µM (active)
GI50 [12]: 0.785 µM (active)
GI50 [13]: 1.36 µM (inactive)
GI50 [14]: 0.228 µM (active)
GI50 [15]: > 100 µM (inactive)
GI50 [16]: > 100 µM (inactive)
GI50 [17]: 3.13 µM
GI50 [18]: 0.0462 µM (active)
GI50 [19]: 22.2 µM (inactive)
GI50 [20]: 21.8 µM (inactive)
GI50 [21]: 4.36 µM (inactive)
GI50 [22]: 0.102 µM (active)
GI50 [23]: < 0.0166 µM (active)
GI50 [24]: 0.0755 µM (active)
GI50 [25]: 43.5 µM (inactive)
GI50 [26]: 3.78 µM (inactive)
GI50 [27]: 0.76 µM (active)
GI50 [28]: > 100 µM (inactive)
GI50 [29]: > 100 µM (inactive)
GI50 [30]: 2.29 µM (inactive)
GI50 [31]: > 100 µM (inactive)
GI50 [32]: 0.297 µM (active)
GI50 [33]: 3.28 µM (inactive)
GI50 [34]: 0.506 µM (active)
GI50 [35]: 0.255 µM (active)
GI50 [36]: > 100 µM (inactive)
GI50 [37]: > 100 µM (inactive)
GI50 [38]: 0.855 µM (active)
GI50 [39]: 0.222 µM (active)
GI50 [40]: > 100 µM (inactive)
GI50 [41]: 79.4 µM (inactive)
GI50 [42]: 10.3 µM (inactive)
GI50 [43]: > 100 µM (inactive)
GI50 [44]: 3.99 µM (inactive)
GI50 [45]: > 100 µM (inactive)
GI50 [46]: < 0.0136 µM (active)
GI50 [47]: 1.91 µM (inactive)
GI50 [48]: 3.72 µM (inactive)

O=CNc1cccc2c3c([nH]c12)CCCCCC3
GI50 [1]: > 100 µM (inactive)
GI50 [2]: > 100 µM (inactive)
GI50 [49]: > 85.5 µM (inactive)
GI50 [3]: > 100 µM (inactive)
GI50 [50]: > 93.1 µM (inactive)
GI50 [51]: > 100 µM (inactive)
GI50 [4]: > 100 µM (inactive)
GI50 [5]: > 100 µM (inactive)
GI50 [6]: > 100 µM (inactive)
GI50 [7]: > 100 µM (inactive)
GI50 [52]: > 100 µM (inactive)
GI50 [8]: 33 µM (inactive)
GI50 [9]: > 100 µM (inactive)
GI50 [10]: > 69.3 µM (inactive)
GI50 [53]: > 92 µM (inactive)
GI50 [11]: > 100 µM (inactive)
GI50 [12]: > 67.1 µM (inactive)
GI50 [13]: > 100 µM (inactive)
GI50 [14]: > 100 µM (inactive)
GI50 [15]: > 100 µM (inactive)
GI50 [16]: > 100 µM (inactive)
GI50 [17]: > 100 µM
GI50 [18]: > 81.5 µM (inactive)
GI50 [19]: > 100 µM (inactive)
GI50 [20]: > 62.4 µM (inactive)
GI50 [21]: > 100 µM (inactive)
GI50 [22]: > 100 µM (inactive)
GI50 [23]: 66.1 µM (inactive)
GI50 [24]: 48 µM (inactive)
GI50 [25]: > 75.7 µM (inactive)
GI50 [26]: > 87.3 µM (inactive)
GI50 [27]: > 100 µM (inactive)
GI50 [28]: > 100 µM (inactive)
GI50 [29]: > 77.1 µM (inactive)
GI50 [30]: > 100 µM (inactive)
GI50 [31]: > 100 µM (inactive)
GI50 [32]: > 100 µM (inactive)
GI50 [33]: > 100 µM (inactive)
GI50 [34]: 67.9 µM (inactive)
GI50 [35]: > 100 µM (inactive)
GI50 [37]: > 100 µM (inactive)
GI50 [38]: > 100 µM (inactive)
GI50 [39]: > 100 µM (inactive)
GI50 [40]: 83.2 µM (inactive)
GI50 [41]: > 100 µM (inactive)
GI50 [42]: > 82.4 µM (inactive)
GI50 [43]: > 100 µM (inactive)
GI50 [44]: > 100 µM (inactive)
GI50 [45]: 76.6 µM (inactive)
GI50 [46]: > 77.8 µM (inactive)
GI50 [54]: 97.5 µM (inactive)
GI50 [47]: > 100 µM (inactive)
GI50 [48]: > 100 µM (inactive)

O=C(Nc1nc2ncn(CCNCCn3cnc4nc(NC(=O)c5ccccc5)[nH]c(=O)c43)c2c(=O)[nH]1)c1ccccc1
GI50 [1]: > 100 µM (inactive)
GI50 [2]: > 100 µM (inactive)
GI50 [55]: > 100 µM (inactive)
GI50 [49]: > 100 µM (inactive)
GI50 [3]: > 100 µM (inactive)
GI50 [50]: > 100 µM (inactive)
GI50 [56]: > 100 µM (inactive)
GI50 [51]: > 100 µM (inactive)
GI50 [4]: > 100 µM (inactive)
GI50 [5]: > 100 µM (inactive)
GI50 [6]: > 100 µM (inactive)
GI50 [7]: > 100 µM (inactive)
GI50 [52]: > 100 µM (inactive)
GI50 [8]: > 100 µM (inactive)
GI50 [9]: > 100 µM (inactive)
GI50 [10]: > 100 µM (inactive)
GI50 [53]: > 100 µM (inactive)
GI50 [11]: > 100 µM (inactive)
GI50 [12]: > 100 µM (inactive)
GI50 [57]: > 100 µM (inactive)
GI50 [13]: > 100 µM (inactive)
GI50 [14]: > 100 µM (inactive)
GI50 [15]: > 100 µM (inactive)
GI50 [16]: > 100 µM (inactive)
GI50 [17]: > 100 µM
GI50 [19]: > 100 µM (inactive)
GI50 [20]: > 100 µM (inactive)
GI50 [21]: > 100 µM (inactive)
GI50 [58]: > 100 µM (inactive)
GI50 [22]: > 100 µM (inactive)
GI50 [23]: > 100 µM (inactive)
GI50 [24]: > 100 µM (inactive)
GI50 [25]: > 100 µM (inactive)
GI50 [26]: > 100 µM (inactive)
GI50 [28]: > 100 µM (inactive)
GI50 [29]: > 100 µM (inactive)
GI50 [30]: > 100 µM (inactive)
GI50 [31]: > 100 µM (inactive)
GI50 [32]: > 100 µM (inactive)
GI50 [33]: > 100 µM (inactive)
GI50 [34]: > 100 µM (inactive)
GI50 [35]: > 100 µM (inactive)
GI50 [36]: > 100 µM (inactive)
GI50 [37]: > 100 µM (inactive)
GI50 [38]: > 100 µM (inactive)
GI50 [39]: > 100 µM (inactive)
GI50 [40]: > 100 µM (inactive)
GI50 [41]: > 100 µM (inactive)
GI50 [42]: > 100 µM (inactive)
GI50 [43]: > 100 µM (inactive)
GI50 [59]: > 100 µM (inactive)
GI50 [45]: > 100 µM (inactive)
GI50 [46]: > 100 µM (inactive)
GI50 [54]: > 100 µM (inactive)
GI50 [47]: > 100 µM (inactive)
GI50 [48]: > 100 µM (inactive)
